Data set [1] in a line: Temperature programmed desorption of NHC films from Au. Type of data set: physicochemical. The following applies: TPD, FIG. 2. As to the method: Vapor deposition experiments were conducted in three separate stainless steel UHV chambers hosting an Ar ion sputtering gun and annealing facilities for sample cleaning. TPD data were collected in a UHV chamber (base pressure P=[…]) equipped with a quadrupole mass spectrometer (SPECTRA, Microvision Plus) in direct line-of-sight with the crystal, and a LEED/Auger spectrometer (SpectaLEED, Omicron). STM images were recorded in a third chamber (base pressure=[…]) equipped with a variable temperature scanning tunneling microscope (Omicron), and LEED optics. An electrochemically etched W tip was used for STM imaging typically employing bias voltages of ±0.6 V and tunneling currents of 300 pA. Image processing and filtering have been applied to the STM data using WSxM.

A short description of data set [2]: Chemical stability tests of NHC films on Au(111) (XPS). The conditions noted are these: pH 2, THF 68° C., water RT 1 month, water 100° C., decalin, 1% H2O2; 24 h (FIGS. 7a-7g). Type of data set: physicochemical. The protocol:
All films were prepared using the hydrogen carbonate salt (carbene precursor) 3a and the solution deposition method previously described. Data for stability measurements are given in Chemical Stability Results.
NHC films derived from iPr2bimy(H)[HCO3] (3a) were submerged in freshly prepared unbuffered solutions of varying pH (pH 2 or pH 12) in Ace Glass pressure tubes at 25° C. for 24 h. Experiments were conducted under N2 gas to minimize the possibility of pH change due to adsorption of atmospheric CO2. After this time, functionalized surfaces were rinsed in deionized water (3×2 mL) and dried in an N2 gas stream. The pH values of the solutions were adjusted using concentrated NaOH and HCl solutions in deionized water. Unbuffered solutions were employed in order to avoid potential adsorption effects of buffer ions from solution.
NHC films derived from iPr2bimy(H)[HCO3] (3a) were placed in Ace Glass pressure tubes and 3 mL of freshly distilled tetrahydrofuran (THF) was added. The tube was purged with nitrogen gas, sealed and heated to 68° C. for 24 h. After this time, the sample was cooled to RT, rinsed in THF (2×5 mL), and dried under a nitrogen gas stream.
NHC films derived from iPr2bimy(H)[HCO3] (3a) were placed in Ace Glass pressure tubes and 2 mL of decalin were added. The tubes were purged with nitrogen gas, sealed and heated to either 100° C. or 190° C. for 24 h. […]

The nature of data set [3]: Bench stability and solubility of carbene precursors. The format is physicochemical.
Data set [4] has as its target bovine serum albumin (BSA) (Bos taurus, UniProt P02769). As to the kind of experiment: Ferulic acid / BSA interaction on NHC-CM5 chip (SPR). Type of data set: binding. The conditions noted are these: 100, 200, 400, 800 μM; FIG. 20. The protocol:
NHC-CM5 (500 KDa) chip was used for this study. Bovine Serum Albumin (BSA) was immobilized (covalently bound to the sensor surface) using amine-coupling chemistry. PBS (10 mM phosphate, 138 mM NaCl, 2.7 mM KCl, pH 7.4) was used as running buffer. […] Final immobilization level of BSA of this study was around 3500 RU. Unmodified dextran surface was used as a reference surface (FC1).
Ferulic acid was first serially diluted into running buffer to final concentrations of 100, 200, 400, 800 μM. To test data quality and further equilibrate the surfaces, four warm-up buffer cycles were performed at a flow rate of 30 μl/min. Then, ferulic acid was injected over the reference and BSA surfaces at a flow rate of […] cycle consisted of a 2-min waiting period for monitoring of the baseline stability. Then the ferulic acid/BSA complex was allowed to associate and dissociate for 3-min and 3-min, respectively, and 20 mM NaOH (30 s) was used as the regeneration solution. The data was processed by subtracting from reference flow cell and blank injections—double referencing method.

The target of the next data set is HSA (Homo sapiens, UniProt P02768). Description: Opioid/protein interactions on HSA-immobilized NHC-CM5 chip (SPR). Type of data set: binding. The conditions noted are these: for Detection of opioid on HSA surface of NHC-CM5 chip: 50, 100, 200, 400 μM, FIG. 21A-D. The protocol: NHC-CM5 chip was used for this study. HSA was immobilized using amine-coupling chemistry. […] Three 30s-injections of 50 mM NaOH was used to wash off non-covalently bound HSA and to further stabilize the baseline. […] Unmodified dextran surface was used as a reference surface.
Opioids were first serially diluted into running buffer to final concentrations of 50, 100, 200, 400 μM. To test data quality and further equilibrate the surfaces, 4 warm-up buffer cycles were performed at a flow rate of 30 μl/min. Opioids samples were injected over the reference and HSA surfaces at a flow rate of 30 μl/min. Replicate injections of each drug concentration were analyzed. Each cycle consisted of a 1-min waiting period for monitoring of the baseline stability. Then the drug/HSA complex was allowed to associate and dissociate for 60 s and 30 s, respectively. […] Data obtained in the reference flow cell was subtracted from that obtained in the HSA immobilized flow cell.

HSA, sequence (P02768 25-609): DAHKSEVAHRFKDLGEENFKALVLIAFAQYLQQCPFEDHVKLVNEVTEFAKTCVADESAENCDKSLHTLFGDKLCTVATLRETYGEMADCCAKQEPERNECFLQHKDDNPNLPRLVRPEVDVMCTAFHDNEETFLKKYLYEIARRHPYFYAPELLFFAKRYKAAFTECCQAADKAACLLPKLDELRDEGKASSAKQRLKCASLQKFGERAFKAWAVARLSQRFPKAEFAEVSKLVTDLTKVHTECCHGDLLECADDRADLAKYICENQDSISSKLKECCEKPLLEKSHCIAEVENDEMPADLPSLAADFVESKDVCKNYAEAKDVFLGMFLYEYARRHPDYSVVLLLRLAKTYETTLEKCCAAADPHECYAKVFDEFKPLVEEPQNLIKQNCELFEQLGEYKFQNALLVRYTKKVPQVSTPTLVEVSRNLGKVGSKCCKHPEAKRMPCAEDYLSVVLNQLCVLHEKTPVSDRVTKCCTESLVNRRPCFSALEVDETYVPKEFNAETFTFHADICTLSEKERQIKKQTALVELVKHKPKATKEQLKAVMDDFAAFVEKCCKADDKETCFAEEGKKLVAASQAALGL
bovine serum albumin (BSA), sequence (P02769 25-607): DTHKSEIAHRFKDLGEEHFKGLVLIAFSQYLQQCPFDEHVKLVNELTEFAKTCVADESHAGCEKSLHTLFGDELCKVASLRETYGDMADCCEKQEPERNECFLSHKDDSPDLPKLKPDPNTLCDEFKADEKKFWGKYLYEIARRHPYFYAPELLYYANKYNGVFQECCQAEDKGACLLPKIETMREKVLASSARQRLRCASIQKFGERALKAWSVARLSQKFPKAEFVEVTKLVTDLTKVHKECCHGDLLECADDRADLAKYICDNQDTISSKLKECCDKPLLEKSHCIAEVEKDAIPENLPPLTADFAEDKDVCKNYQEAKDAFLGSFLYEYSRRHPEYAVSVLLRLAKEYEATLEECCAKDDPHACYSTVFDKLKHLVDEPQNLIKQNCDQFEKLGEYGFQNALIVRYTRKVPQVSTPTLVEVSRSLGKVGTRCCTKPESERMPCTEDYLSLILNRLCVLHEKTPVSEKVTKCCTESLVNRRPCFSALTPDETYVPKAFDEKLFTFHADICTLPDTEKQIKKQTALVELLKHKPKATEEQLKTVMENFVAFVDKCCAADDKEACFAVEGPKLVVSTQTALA

Turning to `CC(C)n1c[n+](C(C)C)c2ccccc21` [Compound 3a, 1,3-Diisopropylbenzimidazolium hydrogen carbonate], the “Maximum desorption temperature of NHC film from Au” value in data set [1] is listed as 605 K. In data set [2], the “XPS spectra of NHC SAM on gold derived from the precursor, before vs after treatment” value is on record as “remained unchanged”. For the same compound, in data set [3] (THF, DCE), the “Solubility in THF and DCE” value is on record as “mild solubility”. In addition, the “Stability of the solid” value in data set [3] (ambient, in air) is “bench-stable”. Moreover, the “Solubility in ethanol and methanol” value in data set [3] (ethanol, methanol) is recorded as “soluble”. Besides, the Solubility in water result in data set [3] (water) was “highly soluble”.
Take `COc1cc(C=CC(=O)O)ccc1O` [ferulic acid, 4-hydroxy-3-methoxycinnamic acid]: the “Sensing of ferulic acid by BSA pre-immobilized NHC-CM5 surface” value in data set [4] was “can sense”.
For the compound `CC(=O)Oc1ccc2c3c1O[C@H]1[C@@H](OC(C)=O)C=C[C@H]4[C@@H](C2)N(C)CC[C@@]341` [heroin], the “Detection of opioid on HSA surface of NHC-CM5 chip” value on HSA was “successfully detected”. Further, the “Detectability at the lowest concentration” value at HSA (lowest of 50, 100, 200, 400 μM) is “not detectable”.
As to `CNC1(c2ccccc2Cl)CCCCC1=O` (stereo not shown) [ketamine], the “Detection of opioid on HSA surface of NHC-CM5 chip” value at HSA is “successfully detected”.

(Values after patent US11008291B2, “Methods of forming carbene-functionalized composite materials” (Queen's University at Kingston, priority 2015, dated 2021).)
